Experimental data from PubChem BioAssay (NCI).
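Each compound was tested at five concentrations against cells in 96-well plates for 48 hours. The concentration for 50% growth inhibition is given as GI50. TGI marks complete inhibition of growth.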

Key:
Assay in all cases: NCI anticancer screen, dose series, 48 h; in the data active = GI50 below about 0.43 µM; inactive = the rest
SF-268 CNS = system: SF-268 CNS
LOX IMVI melanoma = system: LOX IMVI melanoma
SF-539 CNS = system: SF-539 CNS
NCI-H460 lung = system: NCI-H460 lung
SK-OV-3 ovarian = system: SK-OV-3 ovarian
DU-145 prostate = system: DU-145 prostate
SF-295 CNS = system: SF-295 CNS
786-0 renal = system: 786-0 renal
U251 CNS = system: U251 CNS
HOP-62 NSCLC = system: HOP-62 NSCLC
MALME-3M melanoma = system: MALME-3M melanoma
SNB-19 CNS = system: SNB-19 CNS
SK-MEL-2 melanoma = system: SK-MEL-2 melanoma
MDA-N = system: MDA-N
HL-60(TB) leukemia = system: HL-60(TB) leukemia
SK-MEL-5 melanoma = system: SK-MEL-5 melanoma
HS 578T breast = system: HS 578T breast
MDA-MB-231 breast = system: MDA-MB-231 breast
OVCAR-5 ovarian = system: OVCAR-5 ovarian
SR leukemia = system: SR leukemia
HCT-116 colon = system: HCT-116 colon
ACHN renal = system: ACHN renal
HCC-2998 colon = system: HCC-2998 colon
NCI-H23 lung = system: NCI-H23 lung
RPMI-8226 leukemia = system: RPMI-8226 leukemia
SN12C renal = system: SN12C renal
MOLT-4 leukemia = system: MOLT-4 leukemia
K-562 leukemia = system: K-562 leukemia
IGROV1 ovarian = system: IGROV1 ovarian
HCT-15 colon = system: HCT-15 colon
T-47D breast = system: T-47D breast
PC-3 prostate = system: PC-3 prostate
UO-31 renal = system: UO-31 renal
CAKI-1 renal = system: CAKI-1 renal
UACC-62 melanoma = system: UACC-62 melanoma
MCF7 breast = system: MCF7 breast
COLO 205 colon = system: COLO 205 colon
NCI/ADR-RES ovarian = system: NCI/ADR-RES ovarian
CCRF-CEM leukemia = system: CCRF-CEM leukemia
RXF 393 renal = system: RXF 393 renal
EKVX NSCLC = system: EKVX NSCLC
KM12 colon = system: KM12 colon
SK-MEL-28 melanoma = system: SK-MEL-28 melanoma
SW-620 colon = system: SW-620 colon
SNB-75 CNS = system: SNB-75 CNS
HT29 colon = system: HT29 colon
OVCAR-8 ovarian = system: OVCAR-8 ovarian
UACC-257 melanoma = system: UACC-257 melanoma
M14 melanoma = system: M14 melanoma
A549 NSCLC = system: A549 NSCLC
TK-10 renal = system: TK-10 renal
NCI-H226 lung = system: NCI-H226 lung
OVCAR-3 ovarian = system: OVCAR-3 ovarian
A498 renal = system: A498 renal
OVCAR-4 ovarian = system: OVCAR-4 ovarian
MDA-MB-435 = system: MDA-MB-435
BT-549 breast = system: BT-549 breast
HOP-92 NSCLC = system: HOP-92 NSCLC
NCI-H522 lung = system: NCI-H522 lung

COC(C)(C)[C@@H]1CCCN1C1=C(C)C(=O)OC1
> 100 µM: TGI (SF-268 CNS) | TGI (LOX IMVI melanoma) | TGI (SF-539 CNS) | TGI (NCI-H460 lung) | TGI (SK-OV-3 ovarian) | TGI (DU-145 prostate) | TGI (SF-295 CNS) | TGI (786-0 renal) | TGI (U251 CNS) | TGI (HOP-62 NSCLC) | TGI (MALME-3M melanoma) | TGI (SNB-19 CNS) | TGI (SK-MEL-2 melanoma) | TGI (MDA-N) | TGI (HL-60(TB) leukemia) | TGI (SK-MEL-5 melanoma) | TGI (HS 578T breast) | TGI (MDA-MB-231 breast) | TGI (OVCAR-5 ovarian) | TGI (SR leukemia) | TGI (HCT-116 colon) | TGI (ACHN renal) | TGI (HCC-2998 colon) | TGI (NCI-H23 lung) | TGI (RPMI-8226 leukemia) | TGI (SN12C renal) | TGI (MOLT-4 leukemia) | TGI (K-562 leukemia) | TGI (IGROV1 ovarian) | TGI (HCT-15 colon) | TGI (T-47D breast) | TGI (PC-3 prostate) | TGI (UO-31 renal) | TGI (CAKI-1 renal) | TGI (UACC-62 melanoma) | TGI (MCF7 breast) | TGI (COLO 205 colon) | TGI (NCI/ADR-RES ovarian) | TGI (CCRF-CEM leukemia) | TGI (RXF 393 renal)

CC(C)(Oc1ccc(C(=O)c2ccc(Cl)cc2)cc1Cl)C(=O)N1CCN(CCO)CC1
> 10 µM: TGI (LOX IMVI melanoma) | TGI (SK-OV-3 ovarian) | TGI (DU-145 prostate) | TGI (SF-295 CNS) | TGI (786-0 renal) | TGI (EKVX NSCLC) | TGI (HOP-62 NSCLC) | TGI (MALME-3M melanoma) | TGI (KM12 colon) | TGI (SK-MEL-28 melanoma) | TGI (SW-620 colon) | TGI (MDA-N) | TGI (HL-60(TB) leukemia) | TGI (SK-MEL-5 melanoma) | TGI (MDA-MB-231 breast) | TGI (SR leukemia) | TGI (SNB-75 CNS) | TGI (HCC-2998 colon) | TGI (NCI-H23 lung) | TGI (RPMI-8226 leukemia) | TGI (SN12C renal) | TGI (MOLT-4 leukemia) | TGI (K-562 leukemia) | TGI (IGROV1 ovarian) | TGI (HCT-15 colon) | TGI (T-47D breast) | TGI (HT29 colon) | TGI (OVCAR-8 ovarian) | TGI (PC-3 prostate) | TGI (CAKI-1 renal) | TGI (UACC-62 melanoma) | TGI (MCF7 breast) | TGI (UACC-257 melanoma) | TGI (COLO 205 colon) | TGI (M14 melanoma) | TGI (CCRF-CEM leukemia) | TGI (A549 NSCLC) | TGI (RXF 393 renal) | TGI (TK-10 renal)

CN(C)CCOc1ccc2[nH]c(C(=O)N3CC(CCl)c4c3cc([N+](=O)[O-])c3ccccc43)cc2c1 (stereo unspecified)
> 100 µM: TGI (NCI-H226 lung) | TGI (LOX IMVI melanoma) | TGI (SW-620 colon) | TGI (HL-60(TB) leukemia) | TGI (NCI-H23 lung) | TGI (RPMI-8226 leukemia) | TGI (K-562 leukemia) | TGI (PC-3 prostate) | TGI (UO-31 renal) | TGI (COLO 205 colon) | TGI (CCRF-CEM leukemia)
3.77 µM: TGI (SNB-75 CNS)
3.2 µM: TGI (KM12 colon)
24.5 µM: TGI (A498 renal)
85.5 µM: TGI (SK-OV-3 ovarian)
48.5 µM: TGI (MDA-N)
20.2 µM: TGI (DU-145 prostate)
3.68 µM: TGI (OVCAR-3 ovarian)

O=C(NCCCl)NCCN1c2nc3ccccc3cc2Sc2cc3ccccc3nc21
28.1 µM: TGI (TK-10 renal)
17.7 µM: TGI (SF-539 CNS)
1.94 µM: TGI (NCI-H460 lung)
> 52.1 µM: TGI (UO-31 renal)
> 46.8 µM: TGI (SNB-19 CNS)
18.2 µM: TGI (UACC-62 melanoma)
12.3 µM: TGI (U251 CNS)
11.1 µM: TGI (MDA-MB-435)
24.7 µM: TGI (A498 renal)
15.4 µM: TGI (MALME-3M melanoma)
> 55.3 µM: TGI (CAKI-1 renal)
> 44.1 µM: TGI (EKVX NSCLC)
3.75 µM: TGI (SF-295 CNS)
> 23.3 µM: TGI (SR leukemia)
25.3 µM: TGI (IGROV1 ovarian)
7.47 µM: TGI (HOP-92 NSCLC)
> 45.6 µM: TGI (NCI-H23 lung)
inactive: GI50 (NCI-H226 lung) 1.82 µM | GI50 (SF-268 CNS) 3.63 µM | GI50 (LOX IMVI melanoma) 2.36 µM | GI50 (OVCAR-3 ovarian) 1.45 µM | GI50 (SF-539 CNS) 3.14 µM | GI50 (OVCAR-4 ovarian) 0.9 µM | GI50 (NCI-H460 lung) 0.475 µM | GI50 (SK-OV-3 ovarian) 4.41 µM | GI50 (DU-145 prostate) 3.28 µM | GI50 (SF-295 CNS) 0.569 µM | GI50 (786-0 renal) 1.55 µM | GI50 (EKVX NSCLC) 3.45 µM | GI50 (U251 CNS) 1.93 µM | GI50 (MDA-MB-435) 1.57 µM | GI50 (HOP-62 NSCLC) 2.8 µM | GI50 (MALME-3M melanoma) 0.968 µM | GI50 (KM12 colon) 2.67 µM | GI50 (SK-MEL-28 melanoma) 2.8 µM | GI50 (SW-620 colon) 1.16 µM | GI50 (SNB-19 CNS) 5.58 µM | GI50 (SK-MEL-2 melanoma) 2.21 µM | GI50 (HL-60(TB) leukemia) 1.71 µM | GI50 (HS 578T breast) 0.962 µM | GI50 (MDA-MB-231 breast) 2.71 µM | GI50 (OVCAR-5 ovarian) 4.24 µM | GI50 (SNB-75 CNS) 0.558 µM | GI50 (HCT-116 colon) 0.8 µM | GI50 (ACHN renal) 3.02 µM | GI50 (HCC-2998 colon) 1.68 µM | GI50 (NCI-H23 lung) 1.43 µM | GI50 (SN12C renal) 3.04 µM | GI50 (MOLT-4 leukemia) 0.861 µM | GI50 (K-562 leukemia) 2.14 µM | GI50 (IGROV1 ovarian) 0.71 µM | GI50 (HCT-15 colon) 2.74 µM | GI50 (BT-549 breast) 7.01 µM | GI50 (T-47D breast) 2.04 µM | GI50 (HT29 colon) 1.11 µM | GI50 (OVCAR-8 ovarian) 3.03 µM | GI50 (PC-3 prostate) 0.719 µM | GI50 (HOP-92 NSCLC) 0.722 µM | GI50 (UO-31 renal) 2.64 µM | GI50 (CAKI-1 renal) 14.7 µM | GI50 (UACC-62 melanoma) 1.62 µM | GI50 (NCI-H522 lung) 4.23 µM | GI50 (A498 renal) 4.58 µM | GI50 (MCF7 breast) 1.02 µM | GI50 (UACC-257 melanoma) 1.37 µM | GI50 (COLO 205 colon) 1.32 µM | GI50 (NCI/ADR-RES ovarian) 1.61 µM | GI50 (M14 melanoma) 1.77 µM | GI50 (A549 NSCLC) 4.64 µM | GI50 (RXF 393 renal) 6.45 µM | GI50 (TK-10 renal) 7.12 µM
> 23.4 µM: TGI (OVCAR-4 ovarian)
active: GI50 (SK-MEL-5 melanoma) 0.168 µM | GI50 (RPMI-8226 leukemia) 0.245 µM | GI50 (CCRF-CEM leukemia) 0.3 µM
8.53 µM: TGI (SK-MEL-28 melanoma) | TGI (SK-MEL-2 melanoma)
20.8 µM: TGI (OVCAR-8 ovarian)
2.59 µM: TGI (MCF7 breast)
5.12 µM: TGI (HL-60(TB) leukemia)
> 25 µM: TGI (K-562 leukemia)
17.8 µM: TGI (MDA-MB-231 breast)
1.25 µM: TGI (SK-MEL-5 melanoma)
> 44.3 µM: TGI (SK-OV-3 ovarian)
19 µM: TGI (NCI-H226 lung)
> 48.6 µM: TGI (BT-549 breast)
> 41 µM: TGI (SF-268 CNS)
> 45.9 µM: TGI (ACHN renal)
16.1 µM: TGI (OVCAR-3 ovarian) | TGI (KM12 colon)
> 47.6 µM: TGI (SN12C renal)
3.62 µM: TGI (CCRF-CEM leukemia)
2.66 µM: TGI (COLO 205 colon)
> 53.3 µM: TGI (NCI-H522 lung)
> 44.5 µM: TGI (OVCAR-5 ovarian)
13 µM: TGI (NCI/ADR-RES ovarian)
5.09 µM: TGI (HCC-2998 colon)
20.1 µM: TGI (PC-3 prostate)
27.9 µM: TGI (RXF 393 renal)
9.87 µM: TGI (HOP-62 NSCLC)
14.6 µM: TGI (LOX IMVI melanoma)
12 µM: TGI (T-47D breast)
3.43 µM: TGI (HCT-116 colon)
1.64 µM: TGI (RPMI-8226 leukemia)
6.55 µM: TGI (UACC-257 melanoma)
> 40 µM: TGI (HCT-15 colon)
2.95 µM: TGI (SW-620 colon)
8.89 µM: TGI (HT29 colon)
9.57 µM: TGI (HS 578T breast)
4.89 µM: TGI (786-0 renal)
23.1 µM: TGI (A549 NSCLC)
> 39.4 µM: TGI (DU-145 prostate)
5.47 µM: TGI (SNB-75 CNS)
6.73 µM: TGI (M14 melanoma)
